The test system of series [1] is SF-295 (CNS cancer cell line). In words: NCI-60 single-dose assay. Conditions: SF-295; single-dose assay. Format: cell-based, human. Put shortly: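 Read-out is cytotoxic activity from a single-concentration test; the panel spans nine human cancer types, including leukemia, lung, colon and renal.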
The subject of series [2] is CCRF-CEM (leukemia cell line). Put plainly: NCI-60 five-dose assay. As to conditions: Homo sapiens, five doses (10^−4–10^−8 M), read-out: Growth inhibition 50 (GI50). Format: cell-based, human.
Series [3] deals with HL-60(TB) (leukemia cell line). In words: NCI-60 five-dose assay. Format: cell-based, human. As to conditions: Homo sapiens, five doses (10^−4–10^−8 M), read-out: Growth inhibition 50 (GI50).
For series [4], the system named is K-562 (leukemia cell line). Put plainly: NCI-60 five-dose assay. Conditions: Homo sapiens, K562, five doses (10^−4–10^−8 M), read-out: Growth inhibition 50 (GI50). Format: cell-based, human.
Series [5] concerns MOLT-4 (leukemia cell line). Put plainly: NCI-60 five-dose assay. Format: cell-based, human. Conditions: Homo sapiens, five doses (10^−4–10^−8 M), read-out: Growth inhibition 50 (GI50).
The subject of series [6] is RPMI-8226 (leukemia cell line). Put plainly: NCI-60 five-dose assay. As to conditions: Homo sapiens, five doses (10^−4–10^−8 M), read-out: Growth inhibition 50 (GI50). Format: cell-based, human.
Series [7] deals with SR (leukemia cell line). In words: NCI-60 five-dose assay. Format: cell-based, human. Conditions: Homo sapiens, five doses (10^−4–10^−8 M), read-out: Growth inhibition 50 (GI50).
The test system of series [8] is COLO 205 (colon cancer cell line). In words: NCI-60 five-dose assay. Format: cell-based, human. Conditions: Homo sapiens, five doses (10^−4–10^−8 M), read-out: Growth inhibition 50 (GI50).
Series [9] concerns HCC-2998 (colon cancer cell line). Put plainly: NCI-60 five-dose assay. Format: cell-based, human. As to conditions: Homo sapiens, five doses (10^−4–10^−8 M), read-out: Growth inhibition 50 (GI50).
The test system of series [10] is HCT-116 (colon cancer cell line). Put plainly: NCI-60 five-dose assay. Conditions: Homo sapiens, five doses (10^−4–10^−8 M), read-out: Growth inhibition 50 (GI50). Format: cell-based, human.
The subject of series [11] is HCT-15 (colon cancer cell line). Put plainly: NCI-60 five-dose assay. As to conditions: Homo sapiens, five doses (10^−4–10^−8 M), read-out: Growth inhibition 50 (GI50). Format: cell-based, human.
The subject of series [12] is HT29 (colon cancer cell line). In words: NCI-60 five-dose assay. Format: cell-based, human. As to conditions: Homo sapiens, HT-29, five doses (10^−4–10^−8 M), read-out: Growth inhibition 50 (GI50).
Series [13] deals with KM12 (colon cancer cell line). In words: NCI-60 five-dose assay. Format: cell-based, human. Conditions: Homo sapiens, five doses (10^−4–10^−8 M), read-out: Growth inhibition 50 (GI50).
Series [14] deals with MDA-MB-468 (breast cancer). In words: NCI-60 five-dose assay. Format: cell-based, human. As to conditions: Homo sapiens, five-dose screen.
Series [15] concerns RXF 393 (renal cancer cells). In words: NCI-60 five-dose assay. Format: cell-based, human. As to conditions: Homo sapiens, five-dose screen.
Series [16] has as its system Leukemia panel. Put plainly: NCI-60 five-dose assay, panel-level GI50 (mean graph midpoint, range). Format: cell-based, human. As to conditions: Homo sapiens; Leukemia panel average; read-out: GI50 mean graph midpoint (MG_MID). The procedure: (§1) Due to these preliminary results, six compounds, 1, 5, 10, 11, 17, and 20, were selected for the five-dose screen NCI-programme against the same panel of tumour cell lines.
(§2) Next, a mean graph midpoint (MG_MD) was calculated for compounds 1, 5, 10, 11, 17, and 20 and reported as waterfall graphs GI50, TGI, and LC50 in the Supplementary Materials (Figures S69–S86). In Table 9, we reported the average GI50 for the nine-cancer panels, underlining both the activity and selectivity for compounds 1, 10, 11, and 20.

Series [17] relates to Melanoma panel. Described as above. Format: cell-based, human. Conditions: Homo sapiens. The method, then: as §1, §2
Series [18] relates to Breast Cancer panel. In words: NCI-60 five-dose assay, panel-level GI50 (mean graph midpoint). Format: cell-based, human. As to conditions: Homo sapiens; Breast Cancer panel average; read-out: GI50 mean graph midpoint (MG_MID). The procedure: as §1, §2
The subject of series [19] is CNS Cancer panel. Described as above. Format: cell-based, human. As to conditions: Homo sapiens; CNS Cancer panel average; read-out: GI50 mean graph midpoint (MG_MID). The procedure: as §1, §2
Series [20] deals with Non-Small Cell Lung Cancer panel. The series is described as above. Format: cell-based, human. Conditions: Homo sapiens; Non-Small Cell Lung Cancer panel average; read-out: GI50 mean graph midpoint (MG_MID). The procedure:
as §1, §2

Series [21] has as its system Ovarian Cancer panel. Described as above. Format: cell-based, human. As to conditions: Homo sapiens; Ovarian Cancer panel average; read-out: GI50 mean graph midpoint (MG_MID). The method, then:
as §1, §2

In series [22] the test system is Prostate Cancer panel. Described as above. Format: cell-based, human. As to conditions: Homo sapiens; Prostate Cancer panel average; read-out: GI50 mean graph midpoint (MG_MID). The procedure:
as §1, §2

Series [23] has as its system Renal Cancer panel. Described as above. Format: cell-based, human. As to conditions: Homo sapiens; Renal Cancer panel average; read-out: GI50 mean graph midpoint (MG_MID). The procedure: as §1, §2
The test system of series [24] is NCI cancer panel (all cell lines). Put plainly: NCI-60 five-dose assay, overall mean graph midpoint (MG_MID). Format: cell-based, human. As to conditions: Homo sapiens; MG_MID over all panels; read-out: GI50 mean graph midpoint (MG_MID). The method, then:
as §1, §2

Series [25] concerns LOX IMVI (melanoma cell line). In words: NCI-60 five-dose assay.
Series [26] deals with MALME-3M (melanoma cell line). In words: NCI-60 five-dose assay.
Series [27] concerns MDA-MB-435 (melanoma cell line). Put plainly: NCI-60 five-dose assay.

Data on two compounds can be found in paper PMC12566046, “Arylpiperazinyl-Benzocycloheptapyrrole-Carboxamides Endowed with Dual Anticancer and Antiviral Activities” (Molecules, 2025).

The structures appear in SMILES notation. Read-outs that look alike come from different tables or passages of the source.

Broadly, the GI50 is the concentration that inhibits growth by half.

`O=C(NCCCN1CCN(c2ccccc2)CC1)c1cc2c([nH]1)-c1ccccc1CCC2` [Compound 10, N-(3-(4-Phenylpiperazin-1-yl)propyl)-1,4,5,6-tetrahydrobenzo[6,7]cyclohepta[1,2-b]pyrrole-2-carboxamide]: the “growth inhibition (GI%) and cytotoxicity (negative values)” value in series [1] worked out at 90.84%. Also, the concentration for 50% growth inhibition (GI50) was 8.21 µM in [2]; 5.58 µM in series [3]; 2.58 µM in [4]; 4.97 µM in [5]; 3 µM in [6]; 2.29 µM in series [7]. Moreover, the 50% growth inhibitory concentration (GI50) in series [8] was determined as 1.92 µM; in series [9], 2.51 µM; in [10] it was 4.83 µM; in series [11] it was 4.71 µM; in [12] it was 3.14 µM; in [13], 4.89 µM. In addition, the GI50 in series [14] was 2.93 µM; in series [15] it was 2.06 µM; in series [16], 2.95 µM; in series [17] (Melanoma panel average, read-out: GI50 mean graph midpoint (MG_MID)) it was 4.07 µM; in series [17] (five-dose screen, number of cell lines as named in the sentence, read-out: GI50, range over melanoma cell lines), 1.65 to 2.78 µM; in series [18], 8.32 µM. Besides, the concentration for 50% growth inhibition (GI50) in series [19] was 17 µM; in [20] it was 9.33 µM; in [21] it was 12.3 µM; in series [22] it was 6.61 µM; in series [23], 8.71 µM; in series [24] it was 7.24 µM. Besides, the GI50 in series [25] (Homo sapiens, read-out: Growth inhibition 50 (GI50)) came to 3.62 µM; in series [26] (Homo sapiens, Malme-3M, read-out: Growth inhibition 50 (GI50)), 1.65 µM; in series [27] (Homo sapiens, MDA-MB-435, read-out: Growth inhibition 50 (GI50)), 7.88 µM. Moreover, the “TGI (molar concentration giving total growth inhibition)” value in series [25] is 19.5 µM; in series [26] (MALME-3M), 4.36 µM; in series [27] (MDA-MB-435), 18.62 µM. Further, the CC50 was 15.5 µM in [26] (Homo sapiens, Malme-3M, read-out: LC50 (molar concentration leading to 50% net cell death)) and 40.7 µM in series [27] (Homo sapiens, MDA-MB-435, read-out: LC50 (molar concentration leading to 50% net cell death)).
On to `CCOc1ccccc1N1CCN(CCNC(=O)c2c(Cl)[nH]c3c2CCCc2ccccc2-3)CC1` [Compound 17], for which, in series [15], halving of growth (GI50) required 2.57 µM.
